The results in this text go back to patent US12459921B2, “Isoindoline compound, preparation method, pharmaceutical composition and use thereof” (SHANGHAI INSTITUTE OF MATERIA MEDICA, CHINESE ACADEMY OF …, priority 2018, dated 2025).

A value given as a limit tells only on which side of the number the result lay.

The test system of this assay is MM.1S cells. Put plainly: Inhibitory effect on the proliferation of MM.1S, MTS cell viability test. Type of assay: cell-based. To be noted: Homo sapiens, MM1.S, 168 h, multiple myeloma MM.1S cells, 7 days incubation, read-out: Tumor cell inhibitory activity. How it is done: Method of tumor cell proliferation inhibition test: the inventors tested all the example compounds on hematologic tumor cells, multiple myeloma MMTs cell line and acute leukemia cell MV-4-11 cell line of some examples. The activity test method and results are as follows.
1. The Compound's Inhibitory Effect on the Proliferation of MM.1S, MTS Cell Viability Test:
MM.1S cells were cultured and collected with 1640 plus 10% fetal bovine serum. The cell concentration was diluted according to 7 days, and 180 ul cell suspension was added to each well of the 96-well cell plate to 20,000 cells. 20 ul of DMSO with a final concentration of 0.2% was added to the control wells. The compound was 5-fold diluted—from the 10 mM stock solution, and 20 ul was also added to each compound cell well (the final concentration of DMSO was 0.2%). The cells were placed in a 37° C., 5% CO2 incubator to incubate for 7 days. After the reaction solution was prepared according to the MTS kit (Promega, G5430), 20 μL was added to each well and incubated in a 37° C., 5% CO2 incubator for 3-4 h. Absorbance value at 490 nm was read with a microtiter plate, and 690 nm absorbance value was used as the background value. OD490-OD690 was used as the final initial data. The formula for calculating the inhibition rate of the compound is: inhibition rate=(ODDMSO-ODcompound)/(ODDMSO-Oblank)×100%. The compound's proliferation inhibition IC50 was fitted by Graph Pad Prism 5.0. The experiment was repeated three times, and the average and standard deviation was calculated according to the three parallel experiments.
Cell viability test results: **** represents cell viability IC50>20 μM, […] represents cell viability 1 μM<IC50<20 μM, ** represents cell viability 100 nM<IC50<1 μM, * represents cell viability IC50<100 nM.
For orientation: Formazan colour is commonly taken as a measure of viable cells.
As for `O=C1CCC(N2Cc3c(OCCCC(=O)N4CCN(c5ccccc5)CC4)cccc3C2=O)C(=O)N1` (stereo not drawn) [Example 28, 3-(1-oxo-4-(4-oxo-4-(4-phenylpiperazine-1-)butoxy)isoindoline-2-)piperidine-2,6-dione], the IC50 is less than 0.1 µM.
Take `O=C1CCC(N2Cc3c(OCCCC(=O)N4CCN(c5cccc(Cl)c5Cl)CC4)cccc3C2=O)C(=O)N1` (stereo not drawn) [Example 29, 3-(4-(4-(4-(2,3-dichlorophenyl)piperazine-1-)-4-oxobutoxy)-1-oxoisoindoline-2-)piperidine-2,6-dione]: the IC50 was less than 0.1 µM.
The result for `O=C1CCC(N2Cc3c(OCCCCC(=O)N4CCN(c5ccccc5)CC4)cccc3C2=O)C(=O)N1` (stereo not drawn) [Example 30] reads less than 0.1 µM; that for `O=C1CCC(N2Cc3c(OCCCCC(=O)N4CCN(c5cccc(Cl)c5Cl)CC4)cccc3C2=O)C(=O)N1` (stereo not drawn) [Example 31, 3-(4-((5-(4-(2,3-dichlorophenyl)piperazine-1-)-5-oxopentyl)oxy)-1-oxopentyl-2-)piperidine-2,6-dione], less than 0.1 µM.
As to `O=C1CCC(N2Cc3c(OCCNC(=O)N4CCN(c5cccc(Cl)c5Cl)CC4)cccc3C2=O)C(=O)N1` (stereo not drawn) [Example 32, 4-(2,3-dichlorophenyl)-N-(2-((2-(2,6-dioxopiperidine-3-)-1-oxoisoindoline-4-)oxy)ethyl)piperazine-1-carboxamide], the IC50 was in the range of 0.1 to 1 µM.
With `O=C1CCC(N2Cc3c(OCCCCNC(=O)N4CCN(c5cccc(Cl)c5Cl)CC4)cccc3C2=O)C(=O)N1` (stereo not drawn) [Example 33, 4-(2,3-dichlorophenyl)-N-(4-((2-(2,6-dioxopiperidine-3-)-1-oxoisoindoline-4-)oxy)butyl)piperazine-1-carboxamide], the IC50 was less than 0.1 µM.
`O=C1CCC(N2Cc3c(OCCCNC(=O)N4CCN(c5cccc(Cl)c5Cl)CC4)cccc3C2=O)C(=O)N1` (stereo not drawn) [Example 34]: the IC50 fell in the range of 1 to 20 µM.
As for `O=C1CCC(N2Cc3c(CCCCCCN4CCN(c5cccc(Cl)c5Cl)CC4)cccc3C2=O)C(=O)N1` (stereo not drawn) [Example 35, 3-(4-(6-(4-(2,3-dichlorophenyl)piperazine-1-)hexyl)-1-oxoisoindoline-2-)piperidine-2,6-dione], the figure is less than 0.1 µM.
For `N#Cc1ccc(N2CCN(CCCCc3cccc4c3CN(C3CCC(=O)NC3=O)C4=O)CC2)cc1` (stereo not drawn) [Example 36, 4-(4-(4-(2-(2,6-dioxopiperidine-3-)-1-oxoisoindoline-4-)butyl)piperazine-1-)benzonitrile], the IC50 was less than 0.1 µM.
On to `O=C1CCC(N2Cc3c(CCCCN4CCN(c5cccc(Cl)c5)CC4)cccc3C2=O)C(=O)N1` (stereo not drawn) [Example 37, 3-(4-(4-(4-(3-chlorophenyl)piperazine-1-)butyl)-1-oxoisoindoline-2-)piperidine-2,6-dione], for which the IC50 was less than 0.1 µM.
As for `N#Cc1ccccc1N1CCN(CCCCc2cccc3c2CN(C2CCC(=O)NC2=O)C3=O)CC1` (stereo not drawn) [Example 38, 2-(4-(4-(2-(2,6-dioxopiperidine-3-)-1-oxoisoindoline-4-)butyl)piperazine-1-)benzonitrile], the IC50 was less than 0.1 µM.
The result for `O=C1CCC(N2Cc3c(CCCCN4CCN(c5ccc(F)cc5)CC4)cccc3C2=O)C(=O)N1` (stereo not drawn) [Example 39, 3-(4-(4-(4-(4-fluorophenyl)piperazine-1-)butyl)-1-oxoisoindoline-2-)piperidine-2,6-dione] reads less than 0.1 µM; that for `Cc1cccc(N2CCN(CCCCc3cccc4c3CN(C3CCC(=O)NC3=O)C4=O)CC2)c1` (stereo not drawn) [Example 40, 3-(1-oxo-4-(4-(4-(3-methylphenyl)piperazine-1-)butyl)isoindoline-2-)piperidine-2,6-dione], less than 0.1 µM.
Consider `O=C1CCC(N2Cc3c(CCCCN4CCN(c5ccc(Cl)cc5)CC4)cccc3C2=O)C(=O)N1` (stereo not drawn) [Example 41, 3-(4-(4-(4-(4-chlorophenyl)piperazine-1-)butyl)-1-oxoisoindoline-2-)piperidine-2,6-dione], for which the IC50 is less than 0.1 µM.
Take `O=C1CCC(N2Cc3c(CCCCN4CCN(c5ccc([N+](=O)[O-])cc5)CC4)cccc3C2=O)C(=O)N1` (stereo not drawn) [Example 42, 3-(4-(4-(4-(4-nitrophenyl)piperazine-1-)butyl)-1-oxoisoindoline-2-)piperidine-2,6-dione]: the IC50 is less than 0.1 µM.
As for `O=C1CCC(N2Cc3c(CCCCN4CCN(c5ccc(F)cc5F)CC4)cccc3C2=O)C(=O)N1` (stereo not drawn) [Example 43, 3-(4-(4-(4-(2,4-difluorophenyl)piperazine-1-)butyl)-1-oxoisoindoline-2-)piperidine-2,6-dione], the figure is less than 0.1 µM; as for `O=C1CCC(N2Cc3c(CCCCN4CCN(c5ccc(Cl)c(Cl)c5)CC4)cccc3C2=O)C(=O)N1` (stereo not drawn) [Example 44, 3-(4-(4-(4-(3,4-dichlorophenyl)piperazine-1-)butyl)-1-oxoisoindoline-2-)piperidine-2,6-dione], less than 0.1 µM; as for `O=C1CCC(N2Cc3c(CCCCN4CCN(c5ccc(C(F)(F)F)cc5)CC4)cccc3C2=O)C(=O)N1` (stereo not drawn) [Example 45, 3-(1-oxo-4-(4-(4-(4-trifluoromethylphenyl)piperazine-1-)butyl)isoindoline-2-)piperidine-2,6-dione], less than 0.1 µM.
As for `COc1ccc(N2CCN(CCCCc3cccc4c3CN(C3CCC(=O)NC3=O)C4=O)CC2)cc1` (stereo not drawn) [Example 46, 3-(4-(4-(4-(4-methoxyphenyl)piperazine-1-)butyl)-1-oxoisoindoline-2-)piperidine-2,6-dione], the figure is 0.1 to 1 µM; as for `O=C1CCC(N2C(=O)c3cccc(OCCCCOc4ccnc5ccccc45)c3C2=O)C(=O)N1` (stereo not drawn) [Example 47, 2-(2,6-dioxopiperidine-3-)-4-(4-(quinoline-4-oxy)butoxy)isoindoline-1,3-dione], less than 0.1 µM; as for `O=C1CCC(N2Cc3c(CCCCN4CCN(c5c(Cl)cccc5Cl)CC4)cccc3C2=O)C(=O)N1` (stereo not drawn) [Example 48, 3-(4-(4-(4-(2,6-dichlorophenyl)piperazine-1-)butyl)-1-oxoisoindoline-2-)piperidine-2,6-dione], less than 0.1 µM.
As for `N#CC1(c2ccc(Cl)cc2)CCN(CCCCCc2cccc3c2CN(C2CCC(=O)NC2=O)C3=O)CC1` (stereo not drawn) [Example 49, 4-(4-chlorophenyl)-1-(5-(2-(2,6-dioxopiperidine-3-)-1-oxoisoindoline-4-)pentyl) piperidine-4-carbonitrile], the figure is less than 0.1 µM; as for `C[C@]1(N2C(=O)c3cccc(OCCCN4CCC(C#N)(c5ccccc5Cl)CC4)c3C2=O)CCC(=O)NC1=O` [Example 50, (S)-4-(2-chlorophenyl)-1-(3-((2-(3-methyl-2,6-dioxopiperidine-3-)-1,3-dioxoisoindoline-4-)oxy)propyl)piperidine-4-carbonitrile], 1 to 20 µM; as for `C[C@]1(N2Cc3c(OCCCN4CCC(C#N)(c5cccc(Cl)c5)CC4)cccc3C2=O)CCC(=O)NC1=O` [Example 52, (S)-4-(3-chlorophenyl)-1-(3-((2-(3-methyl-2,6-dioxopiperidine-3-)-1-oxoisoindole-4-)oxy)propyl)piperidine-4-carbonitrile], 1 to 20 µM.
For `N#CC1(c2ccccc2)CCN(CCCOc2cccc3c2CN(C2CCC(=O)NC2=O)C3=O)CC1` (stereo not drawn) [Example 53, 1-(3-((2-(2,6-dioxopiperidine-3-)-1-oxoisoindoline-4-)oxy)propyl)-4-phenylpiperidine-4-carboxonitrile], the IC50 was less than 0.1 µM.
The result for `C[C@]1(N2C(=O)c3cccc(OCCCN4CCC(C#N)(c5cccc(Cl)c5)CC4)c3C2=O)CCC(=O)NC1=O` [Example 54, (S)-4-(3-chlorophenyl)-1-(3-((2-(3-methyl-2,6-dioxopiperidine-3-)-1,3-dioxoisoindoline-4-)oxy)propyl)piperidine-4-carbonitrile] reads 1 to 20 µM; that for `N#CC1(c2ccccc2Cl)CCN(CCCOc2cccc3c2CN(C2CCC(=O)NC2=O)C3=O)CC1` (stereo not drawn) [Example 55, 4-(2-chlorophenyl)-1-(3-((2-(2,6-dioxopiperidine-3-)-1-oxoisoindoline-4-)oxy)propyl)piperidine-4-carbonitrile], less than 0.1 µM; that for `C[C@]1(N2Cc3c(OCCCN4CCC(C#N)(c5ccccc5OC(F)(F)F)CC4)cccc3C2=O)CCC(=O)NC1=O` [Example 56, (S)-1-(3-((2-(3-methyl-2,6-dioxopiperidine-3-)-1-oxoisoindoline-4-)oxy)propyl)-4-(2-(trifluoromethoxy)phenyl)piperidine-4-carbonitrile], 1 to 20 µM.
As for `N#CC1(c2cccc(Cl)c2)CCN(CCCOc2cccc3c2CN(C2CCC(=O)NC2=O)C3=O)CC1` (stereo not drawn) [Example 57, 4-(3-chlorophenyl)-1-(3-((2-(2,6-dioxopiperidine-3-)-1-oxoisoindoline-4-)oxy)propyl)piperidine-4-carbonitrile], the figure is less than 0.1 µM; as for `C[C@]1(N2C(=O)c3cccc(OCCCN4CCC(C#N)(c5ccccc5OC(F)(F)F)CC4)c3C2=O)CCC(=O)NC1=O` [Example 58, (S)-1-(3-((2-(3-methyl-2,6-dioxopiperidine-3-)-1,3-dioxoisoindoline-4-)oxy)propyl)-4-(2-(trifluoromethoxy)phenyl)piperidine-4-carbonitrile], 1 to 20 µM.
